From ChEMBL document CHEMBL1201862, “PubChem BioAssay data set” (2004)
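Method: 48-hour compound exposure of cells in 96-well plates, five concentrations, linear interpolation of endpoints. The concentration for 50% growth inhibition is given as GI50.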 The source made the active and inactive calls. No stated cut-off is given here; in the data, active = GI50 up to about 1.1 µM and inactive = higher.

Tests used:
Experiment in all cases: NCI anticancer screen, dose series, 48 h
[1] = tested on: HCT-116
[2] = tested on: HL-60
[3] = tested on: LOX IMVI
[4] = tested on: SK-MEL-28
[5] = tested on: CAKI-1
[6] = tested on: M14
[7] = tested on: SNB-19
[8] = tested on: RPMI-8226
[9] = tested on: MDA-N
[10] = tested on: SK-OV-3
[11] = tested on: K562
[12] = tested on: MDA-MB-435
[13] = tested on: MCF7
[14] = tested on: HT-29
[15] = tested on: EKVX
[16] = tested on: BT-549
[17] = tested on: NCI-H226
[18] = tested on: MDA-MB-231
[19] = tested on: PC-3
[20] = tested on: TK-10
[21] = tested on: DU-145
[22] = tested on: NCI-H23
[23] = tested on: UACC-257
[24] = tested on: SK-MEL-5
[25] = tested on: 786-0
[26] = tested on: SR
[27] = tested on: SF-268
[28] = tested on: Hs-578T
[29] = tested on: MOLT-4
[30] = tested on: SW-620
[31] = tested on: SN12C
[32] = tested on: HCC 2998
[33] = tested on: UACC-62
[34] = tested on: OVCAR-8
[35] = tested on: Malme-3M
[36] = tested on: SF-539
[37] = tested on: SNB-75
[38] = tested on: HCT-15
[39] = tested on: NCI-H522
[40] = tested on: HOP-62
[41] = tested on: KM12
[42] = tested on: T47D
[43] = tested on: SF-295
[44] = tested on: COLO 205
[45] = tested on: UO-31
[46] = tested on: A549
[47] = tested on: IGROV-1
[48] = tested on: CCRF-CEM
[49] = tested on: NCI-H460
[50] = tested on: RXF 393
[51] = tested on: HOP-92
[52] = tested on: OVCAR-4
[53] = tested on: OVCAR-3
[54] = tested on: OVCAR-5
[55] = tested on: U-251
[56] = tested on: ACHN
[57] = tested on: A498
[58] = tested on: NCI/ADR-RES
[59] = tested on: SK-MEL-2

Compound: CC1=NC(=Cc2ccc([N+](=O)[O-])cc2)C(=O)N1n1c(-c2ccccc2)nc2ccccc2c1=O
- GI50 [1]: 32.1 µM (inactive)
- GI50 [2]: 32.3 µM (inactive)
- GI50 [3]: 34.7 µM (inactive)
- GI50 [4]: 57.9 µM (inactive)
- GI50 [5]: 35.2 µM (inactive)
- GI50 [6]: 46.7 µM (inactive)
- GI50 [7]: 55.2 µM (inactive)
- GI50 [8]: 22.3 µM (inactive)
- GI50 [9]: 49 µM (inactive)
- GI50 [10]: 68.9 µM (inactive)
- GI50 [11]: 40.6 µM (inactive)
- GI50 [12]: 47.6 µM (inactive)
- GI50 [13]: 29.1 µM (inactive)
- GI50 [14]: 37 µM (inactive)
- GI50 [15]: 45.5 µM (inactive)
- GI50 [16]: 85.3 µM (inactive)
- GI50 [17]: 95.9 µM (inactive)
- GI50 [18]: 63.7 µM (inactive)
- GI50 [19]: 39.7 µM (inactive)
- GI50 [20]: 80.7 µM (inactive)
- GI50 [21]: 51.8 µM (inactive)
- GI50 [22]: 21.8 µM (inactive)
- GI50 [23]: 42.9 µM (inactive)
- GI50 [24]: 31.9 µM (inactive)
- GI50 [25]: 83 µM (inactive)
- GI50 [26]: 35.2 µM (inactive)
- GI50 [27]: 37.8 µM (inactive)
- GI50 [28]: 50.2 µM (inactive)
- GI50 [29]: 28.8 µM (inactive)
- GI50 [30]: 36.7 µM (inactive)
- GI50 [31]: 52 µM (inactive)
- GI50 [32]: 57.9 µM (inactive)
- GI50 [33]: 43.3 µM (inactive)
- GI50 [34]: 36.6 µM (inactive)
- GI50 [35]: 53.7 µM (inactive)
- GI50 [36]: 67.3 µM (inactive)
- GI50 [37]: 15.7 µM (inactive)
- GI50 [38]: 43.1 µM
- GI50 [39]: 32.1 µM (inactive)
- GI50 [40]: 60.1 µM (inactive)
- GI50 [41]: 35.6 µM (inactive)
- GI50 [42]: 39.8 µM (inactive)
- GI50 [43]: 52 µM (inactive)
- GI50 [44]: 46.6 µM (inactive)
- GI50 [45]: 31.6 µM (inactive)
- GI50 [46]: 47.1 µM (inactive)
- GI50 [47]: 53.6 µM (inactive)
- GI50 [48]: 32.8 µM (inactive)

Compound: [N-]=[N+]=NC1=CC(=O)c2cccc3cccc1c23
- GI50 [1]: 23.5 µM (inactive)
- GI50 [2]: > 100 µM (inactive)
- GI50 [3]: 17.3 µM (inactive)
- GI50 [4]: 33.3 µM (inactive)
- GI50 [49]: 31.1 µM (inactive)
- GI50 [5]: 22.2 µM (inactive)
- GI50 [6]: 18.4 µM (inactive)
- GI50 [50]: 16.8 µM (inactive)
- GI50 [7]: 36.5 µM (inactive)
- GI50 [8]: 56.6 µM (inactive)
- GI50 [9]: 46.2 µM (inactive)
- GI50 [10]: 15.3 µM (inactive)
- GI50 [51]: 18.4 µM (inactive)
- GI50 [11]: 26.2 µM (inactive)
- GI50 [12]: 40 µM (inactive)
- GI50 [13]: 34.2 µM (inactive)
- GI50 [52]: 56.9 µM (inactive)
- GI50 [14]: 34.6 µM (inactive)
- GI50 [16]: 27.1 µM (inactive)
- GI50 [18]: 73.8 µM (inactive)
- GI50 [19]: 16.6 µM (inactive)
- GI50 [20]: 44.4 µM (inactive)
- GI50 [21]: 33.4 µM (inactive)
- GI50 [22]: 20.7 µM (inactive)
- GI50 [23]: 31.7 µM (inactive)
- GI50 [24]: 12 µM (inactive)
- GI50 [25]: 31.9 µM (inactive)
- GI50 [26]: 67.3 µM (inactive)
- GI50 [27]: 29.9 µM (inactive)
- GI50 [53]: 31.7 µM (inactive)
- GI50 [28]: 17.9 µM (inactive)
- GI50 [54]: 49.3 µM (inactive)
- GI50 [29]: 10.7 µM (inactive)
- GI50 [30]: 17 µM (inactive)
- GI50 [31]: 43.3 µM (inactive)
- GI50 [32]: 38 µM (inactive)
- GI50 [33]: 16.5 µM (inactive)
- GI50 [35]: 31.4 µM (inactive)
- GI50 [36]: 31 µM (inactive)
- GI50 [37]: 13.5 µM (inactive)
- GI50 [55]: 20.1 µM (inactive)
- GI50 [56]: 29.2 µM (inactive)
- GI50 [40]: 15.7 µM (inactive)
- GI50 [41]: 85.9 µM (inactive)
- GI50 [42]: 22.3 µM (inactive)
- GI50 [43]: 24.9 µM (inactive)
- GI50 [44]: 49.7 µM (inactive)
- GI50 [45]: 24.9 µM (inactive)
- GI50 [46]: 32.4 µM (inactive)
- GI50 [47]: 15.8 µM (inactive)
- GI50 [57]: 12.2 µM (inactive)
- GI50 [48]: 10.6 µM (inactive)

Compound: CC1(C)O[C@H]([C@H](O)c2nnc3ccc(Cl)nn23)[C@@H]([C@H]2COC(C)(C)O2)O1
- GI50 [1]: > 100 µM (inactive)
- GI50 [2]: > 100 µM (inactive)
- GI50 [3]: > 100 µM (inactive)
- GI50 [4]: > 100 µM (inactive)
- GI50 [49]: > 100 µM (inactive)
- GI50 [5]: > 100 µM (inactive)
- GI50 [58]: > 100 µM (inactive)
- GI50 [59]: > 100 µM (inactive)
- GI50 [6]: > 100 µM (inactive)
- GI50 [50]: > 100 µM (inactive)
- GI50 [7]: > 100 µM (inactive)
- GI50 [8]: > 100 µM (inactive)
- GI50 [9]: > 100 µM (inactive)
- GI50 [10]: > 100 µM (inactive)
- GI50 [12]: > 100 µM (inactive)
- GI50 [13]: > 100 µM (inactive)
- GI50 [52]: > 100 µM (inactive)
- GI50 [14]: > 100 µM (inactive)
- GI50 [15]: > 100 µM (inactive)
- GI50 [16]: > 100 µM (inactive)
- GI50 [18]: > 100 µM (inactive)
- GI50 [19]: > 100 µM (inactive)
- GI50 [20]: > 100 µM (inactive)
- GI50 [21]: > 100 µM (inactive)
- GI50 [22]: > 100 µM (inactive)
- GI50 [23]: > 100 µM (inactive)
- GI50 [24]: > 100 µM (inactive)
- GI50 [25]: > 100 µM (inactive)
- GI50 [27]: > 100 µM (inactive)
- GI50 [53]: > 100 µM (inactive)
- GI50 [28]: > 100 µM (inactive)
- GI50 [54]: > 100 µM (inactive)
- GI50 [29]: > 100 µM (inactive)
- GI50 [30]: > 100 µM (inactive)
- GI50 [31]: > 100 µM (inactive)
- GI50 [32]: > 100 µM (inactive)
- GI50 [33]: > 100 µM (inactive)
- GI50 [34]: > 100 µM (inactive)
- GI50 [35]: > 100 µM (inactive)
- GI50 [36]: > 100 µM (inactive)
- GI50 [55]: > 100 µM (inactive)
- GI50 [38]: > 100 µM
- GI50 [39]: > 100 µM (inactive)
- GI50 [56]: > 100 µM (inactive)
- GI50 [40]: > 100 µM (inactive)
- GI50 [41]: > 100 µM (inactive)
- GI50 [42]: > 100 µM (inactive)
- GI50 [43]: > 100 µM (inactive)
- GI50 [44]: > 100 µM (inactive)
- GI50 [46]: > 100 µM (inactive)
- GI50 [47]: > 100 µM (inactive)
- GI50 [57]: > 100 µM (inactive)
- GI50 [48]: > 100 µM (inactive)
